{"source": "patent US11344025B2", "about": "“Organ preconditioning formulation with mitochondrial elongating agents” (MUSC FOUNDATION FOR RESEARCH DEVELOPMENT, priority 2017, dated 2022)", "key": {"[1]": {"test_system": "sensitized allogeneic CD8+ T-cells cocultured with MCECs", "experiment": "EC/T cell co-culture: cytokine release by alloreactive CD8 T cells", "type": "cell-based, mouse", "details": "cold stored (CIT) and treated ECs", "description": "EC/T cell co-culture: Using the genetically modified and pharmacological inhibitors the inventors will dissect the impact of EC mito morphology manipulation on T cell activation/co-stimulation. These studies will focus on MCECs given the availability of reagents and ability to generate alloreactive CD8 T cells as previously published.\nAllogenic CD8 T cells will be generated. In brief, C57Bl/6 mice will be inoculated with MCECs i.p. and 3 weeks later spleens will be harvested and CD8 T cells isolated using bead isolation techniques. These MCEC alloreactive CD8 T cells will then be co-cultured with MCECs in the normoxic and CIT models."}, "MCECs": {"test_system": "MCECs", "experiment": "mitoSOX staining of mito ROS after CIT", "type": "cell-based, mouse", "details": "CIT-induced ROS", "method": "Hypoxic cold storage and reperfusion injury culture model: A modified cell culture model that simulates the IR process of organ Tx will be used. […] Cells will then be sealed in a hypoxic chamber filled with nitrogen at 4° C. After CIT, cells will undergo simulated reperfusion by removing the preservation solution and reintroducing fresh DMEM containing 10% FBS."}, "[2]": {"experiment": "Systemic administration of Mdivi-1, adverse effects", "type": "in vivo", "description": "The studies proposed will delineate the role of mito morphology alterations in cardiac-Tx. They will also determine how donor BD impacts IM, and identify an optimum drug delivery strategy for reducing acute post-Tx injury through mito shape manipulation. The opposing roles of mito fission and fusion regulate mito morphology and function. A number of key proteins have been identified which control this process (DRP-1, mito fission protein-1 (Fis-1) and mito fission factor (mff), Mfn1/2, and OPA-1). Given the importance of these proteins for the maintenance of cellular respiration, genetic deletion is most often fatal. However, C57Bl/6 homozygous mito fission factor (Mff)-deficient (Mff^gt−/−) mice are available, as are pharmacological promoters of fusion, M1 and Mdivi-1. […] Using these tools, the inventors will dissect the role of fission and fusion in IRI and rejection in the context of organ Tx. The inventors propose three sub Aims. In SA 2.1, the inventors will determine the impact of mito fission inhibition, and thus fusion promotion, through comparing the effects of IRI and AR of recipients receiving hearts from C57Bl/6 wildtype (wt) or C57Bl/6 homozygous mito fission factor (Mff)-deficient (Mff^gt−/−) donors. In SA 2.2 the inventors will explore the therapeutic potential of donor heart pre-treatment with M1, Mdivi-1, and a combination of both. […]"}, "focal cardiac ischemia": {"test_system": "focal cardiac ischemia", "details": "non-transplant setting, previous studies, cited from earlier work"}}, "note": "Entries after “also recorded” stand apart in the source; their conditions may differ. Where two headings read alike, the source gives them in different places.", "data": [{"smiles": "CC(=O)N[C@@H](CS)C(=O)O", "note": "[NAC, N-Acetyl Cysteine]", "values": [{"measurement": "Granzyme B (GrB) production by co-cultured alloreactive CD8 T cells", "setting": "[1]", "result": "has no impact; also recorded: no significant effect; also recorded: do not decrease Granzyme-B to the extent of DRP-KD"}, {"measurement": "IFN-gamma production by co-cultured alloreactive CD8 T cells", "setting": "[1]", "result": "has no impact; also recorded: no significant effect"}, {"measurement": "mito ROS (mitoSox)", "setting": "MCECs", "result": "completely abrogated ROS"}]}, {"smiles": "COc1cc(-n2c(S)nc3ccccc3c2=O)c(Cl)cc1Cl", "note": "[Mdivi-1]", "values": [{"measurement": "adverse side effects", "setting": "[2]", "result": "no detectable adverse side effects"}, {"measurement": "cardioprotection from focal IRI", "setting": "focal cardiac ischemia", "result": "provides protection from IRI; also recorded: promote cardioprotective effects"}, {"measurement": "cardioprotection from focal IRI", "setting": "focal cardiac ischemia; listed as Mdivi1", "result": "protect both myocardium and microvasculature"}]}]}
